Earlier results in patent publication US10299480B2 (priority 2014, dated 2019).

What was measured:
[1] = test system: poliovirus
[2] = test system: adenovirus; details: 10 minute exposure, same conditions
[3] = test system: herpes virus; details: 10 minute exposure

Which “Effect on non-enveloped virus” value [1] does the source give for `N=C(NCCCCCCNC(=N)NC(=N)Nc1ccc(Cl)cc1)NC(=N)Nc1ccc(Cl)cc1.O=C(O)[C@H](O)[C@@H](O)[C@H](O)[C@H](O)CO.O=C(O)[C@H](O)[C@@H](O)[C@H](O)[C@H](O)CO` [CHX, Chlorhexidine digluconate] here?
Its value is “virtually no effect”.

And the “Effect on non-enveloped virus” value [2]?
Its value is “virtually no effect”.

And the “Reduction of the number of virus particles” value [3]?
The value was 5-6 times.
